Experimental data reported in patent publication US20220022395A1, “JASMONIC ACID ENDOGENY PROMOTING AGENT, AND METHOD FOR PROMOTING JASMONIC ACID ENDOGENY” (Tokyo University of Science Foundation, priority 2018, published 2022).

Tests used:
[1] = test system: Arabidopsis thaliana (Col-0); assay: Measurement of amount of endogenous jasmonic acid production (LC-MS/MS); assay type: in vivo; details: 50 μM, 24 h in the light, vs DMSO negative control; FIG. 1 (*p<0.05; **p<0.01)
Procedure: Arabidopsis thaliana (Col-0) seeds were sown on a transparent 96-well plate, and soaked in a 1/2 MS medium (150 μL). The seeds were left for 2-3 days in a cool and dark place, and then left to grow under long-day treatment conditions for 9-10 days. Thereafter, the medium was replaced with a 1/2 MS medium (100 μL) containing each (50 μM) of compounds E1, E2, and E3, and comparative compounds C1 and C2, vacuum treatment was applied for 10 min, and the seeds were left in the light for 24 h. About 20 to 60 mg of the plantlets (about 3 individuals) and 2 beads for crushing were placed in a tube, and immediately frozen with liquid nitrogen and stored at −80° C. In addition, for a negative control, DMSO was added instead of each of compounds E1, E2, and E3, and comparative compounds C1 and C2.
The frozen sample was crushed using a bead-type homogenizer (Bead Smash 12; WakenBtech Co., Ltd.) under conditions of 3,000 rpm for 60 sec, and then 1 mL of an aqueous solution of 70% methanol plus 1% acetic acid and 10 ng of d2-JA (internal standard) were added. The mixture was mixed thoroughly by vortexing. This solution was centrifuged at 10,000 rpm for 5 min and the supernatant was collected. The same process was repeated two more times without the addition of the internal standard, and a total of 3 mL of an extract was collected.
The solutions were then applied to a Sep-Pak (registered trademark) Vac 3cc (500 mg) C18 Cartridge (Waters) in the following order of 1. to 6.
1. acetonitrile (one column volume, about 3 mL) 2. 100% methanol (one column volume) 3. distilled water (one column volume) 4. aqueous solution of 70% methanol+1% acetic acid (two column volumes) 5. sample supernatant (total amount) 6. aqueous solution of 70% methanol+1% acetic acid (one column volume) […]
Then, the amount of endogenous jasmonic acid (JA) production was determined by LC-MS/MS. […]

PDF1.2 gene [2] = assay: Measurement of expression level of PDF1.2 gene (1), real-time PCR; assay type: in vivo, Arabidopsis thaliana; details: 24 h, relative expression (ΔΔCt, EF1-α reference)
Procedure: Arabidopsis thaliana (Col-0) seeds were sown on a transparent 96-well plate, and soaked in a 1/2 MS medium (150 μL). The seeds were left for 2-3 days in a cool and dark place, and then left to grow under long-day treatment conditions for 9-10 days. Thereafter, the medium was replaced with a 1/2 MS medium (100 μL) containing compound E1 (25 μM) or compound E2 (50 μM), vacuum treatment was applied for 10 min, and the seeds were left in the light for 24 h. About 20 to 60 mg of the plantlets (about 3 individuals) and 2 beads for crushing were placed in a tube, and immediately frozen with liquid nitrogen and stored at −80° C. In addition, for a negative control, DMSO was added instead of each of compounds E1 and E2. […] The concentration of the total RNA obtained was measured, and the total RNA was mixed with RNAse-free H2O to 1/12 μg/μL (6 μL H2O for 0.5 μg of the total RNA), and the mixture was placed in a PCR tube, incubated at 65° C. for 5 min, and then quenched on ice. […] Then, CFX Connect Real-Time PCR Detection System (Bio-Rad) was used to quantitatively determine the expression level of PDF1.2 gene. […] For quantification, the ΔΔCt method was used, and this value was expressed as the relative expression level. […]

PDF1.2 gene [3] = assay: Measurement of expression level of PDF1.2 gene (2), real-time PCR; assay type: in vivo, Arabidopsis thaliana; details: 50 μM, 48 h; FIG. 3
Procedure: (§1) Arabidopsis thaliana (Col-0) seeds were sown on a transparent 96-well plate, and soaked in a 1/2 MS medium (150 μL). The seeds were left for 2-3 days in a cool and dark place, and then left to grow under long-day treatment conditions for 10 days. Thereafter, the medium was replaced with a 1/2 MS medium (100 μL) containing compound E1 (50 μM), compound E4 (50 μM), or compound E5 (50 μM), and comparative compounds C1 and C2, vacuum treatment was applied for 10 min, and the seeds were left in the light for 48 h. Eight individual plantlets and 2 beads for crushing were placed in a tube, and immediately frozen with liquid nitrogen and stored at −80° C. In addition, for a negative control, DMSO was added instead of each of compounds E1, E4, and E5. Then, similarly to Test Example 2, RNA was extracted from the frozen sample, and the expression level of the PDF1.2 gene was quantitatively determined by reverse transcription real-time PCR.

PDF1.2 gene [4] = assay: Measurement of expression level of PDF1.2 gene (3), real-time PCR; assay type: in vivo, Arabidopsis thaliana; details: 50 μM, 48 h; FIG. 4
Procedure: as §1, with “3-7” for “2-3”, “μM),” for “μM), compound E4 (50 μM),”, “E6” for “E5”, “E1” for “E1, E4,”, “E6.” for “E5.”

MRC-5 cells = assay: Study on cytotoxicity, WST-8 method; assay type: cell-based, human; details: 50 μM, cultured 2 days, FIG. 5
Procedure: Normal fibroblasts MRC-5 from human fetal lung were seeded in a 96-well plate at a cell density of 5,000 cells/well, and cultured for 1 day under conditions of 37° C. and 5% CO2. After the culturing, compound E1 was added to the medium at varying concentrations, and the cells were cultured for another 2 days. Then, the number of viable cells was determined using the WST-8 method, and the viability of the MRC-5 cells was calculated. In addition, for a control, SN-38, an active metabolite of the anticancer drug irinotecan, was added instead of compound E1.

Row | SMILES | amount of endogenous jasmonic acid production [1] | expression level of PDF1.2 gene (PDF1.2 gene [3]) | expression level of PDF1.2 gene (PDF1.2 gene [4]) | also measured
1 | COc1ccc(Oc2cccc(F)c2C#N)cc1 [compound E1] | significantly increased | markedly enhanced | markedly enhanced | expression level of PDF1.2 gene (PDF1.2 gene [2]; 25 μM, FIG. 2A): markedly enhanced; viability of the MRC-5 cells (MRC-5 cells): exceeds 60%
2 | N#Cc1c(Cl)cccc1Oc1ccc(-c2nnco2)cc1 [compound E2] | significantly increased |  |  | expression level of PDF1.2 gene (PDF1.2 gene [2]; 50 μM, FIG. 2B): markedly enhanced
3 | N#Cc1c(F)cccc1Oc1ccccc1 [compound E3] | significantly increased |  |  | 
4 | COc1ccc(Oc2cccc(Cl)c2C#N)cc1 [compound E4] |  | markedly enhanced |  | 
5 | COc1ccc(Oc2cccc(Br)c2C#N)cc1 [compound E5] |  | markedly enhanced |  | 
6 | CC(C)Oc1ccc(Oc2cccc(F)c2C#N)cc1 [compound E6] |  |  | markedly enhanced | 
